Here are results for 12 compounds from ChEMBL document CHEMBL1201862, “PubChem BioAssay data set” (2004).

SMILES strings stand for the structures.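 Growth conditions: 96-well plates. Treatment: test compound, 48 hours, 5 concentrations. Analysis: linear interpolation between bracketing concentrations; unreached endpoints set to highest concentration. At the GI50, growth is halved.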 Active and inactive are the calls of the source. Cut-off read from the data, not from the text of the source: active = GI50 up to about 1.1 µM and inactive = higher. Where only a bound is given, the exact number is not on record here.

What all share (experiment): NCI anticancer screen, dose series, 48 h
For experiment [1], the system named is A498.
Experiment [2] concerns ACHN.
The test system of experiment [3] is BT-549.
Experiment [4] has as its system CAKI-1.
For experiment [5], the system named is EKVX.
Experiment [6] has as its system HCC 2998.
The test system of experiment [7] is HCT-15.
The subject of experiment [8] is HT-29.
In experiment [9] the test system is K562.
The test system of experiment [10] is NCI-H226.
The subject of experiment [11] is NCI-H522.
The subject of experiment [12] is NCI/ADR-RES.
Experiment [13] concerns SF-295.
Experiment [14] concerns SK-MEL-28.
Experiment [15] deals with SK-OV-3.
Experiment [16] relates to SW-620.
Experiment [17] relates to UACC-257.
Experiment [18] has as its system HL-60.
Experiment [19] has as its system MDA-N.

Consider `COc1cc2nc(-c3cccs3)nc(N3C(c4ccc(O)cc4)=NNC(=O)c4ccccc43)c2cc1OC`, for which the GI50 in experiment [1] is > 100 µM (inactive); in [2] it was 23.7 µM (inactive); in experiment [3] it was 21 µM (inactive); in experiment [4], 22.2 µM (inactive); in [5], 3.9 µM (inactive); in experiment [6] it was 18.6 µM (inactive). Besides, the GI50 is 32 µM in experiment [7]; 23.1 µM (inactive) in [8]; 17.5 µM (inactive) in experiment [9]; 23.3 µM (inactive) in experiment [10]; 86.9 µM (inactive) in [11]; 17.7 µM (inactive) in [12]. In addition, the GI50 in experiment [13] is 19.5 µM (inactive); in experiment [14], 25.4 µM (inactive); in experiment [15], 38 µM (inactive); in experiment [16] it was 30.4 µM (inactive); in experiment [17] it was 28.4 µM (inactive).
As for `COc1cc(S(=O)(=O)Nc2nc(-c3ccc(N4C(=O)CSC4c4cccs4)cc3)cs2)ccc1Cl` (stereo not given), the GI50 in experiment [1] was > 100 µM (inactive); in [2] it was > 100 µM (inactive); in experiment [4] it was > 100 µM (inactive); in experiment [7] it was 22.8 µM; in experiment [18], 23.2 µM (inactive); in experiment [8], > 100 µM (inactive). The GI50 is 31 µM (inactive) in [9]; 43.4 µM (inactive) in experiment [19]; > 100 µM (inactive) in experiment [10]; 30.9 µM (inactive) in experiment [11]; > 100 µM (inactive) in experiment [12]; > 100 µM (inactive) in experiment [13]. For the same compound, the GI50 is > 100 µM (inactive) in [14], > 100 µM (inactive) in [15], 40.8 µM (inactive) in experiment [16] and 71 µM (inactive) in experiment [17].
For the compound `CC/C=C/c1cc2c(cc1O)CCC1C2CC[C@@]2(C)C1CC[C@@H]2O` (stereo not given in full), the GI50 was 2.56 µM (inactive) in experiment [1]; 2.14 µM (inactive) in experiment [2]; 0.524 µM (active) in experiment [4]; 3.53 µM (inactive) in experiment [5]; 14.7 µM (inactive) in experiment [6]; 4.33 µM in experiment [7]. Further, the GI50 is 7.93 µM (inactive) in experiment [8]; 1.28 µM (inactive) in experiment [9]; 0.199 µM (active) in [19]; 1.47 µM (inactive) in experiment [10]; 0.475 µM (active) in experiment [11]; 0.667 µM (active) in [12]. Besides, the GI50 in [13] is 0.34 µM (active); in experiment [14], 11.3 µM (inactive); in experiment [15] it was 2.43 µM (inactive); in [16], 1.12 µM (active); in [17], 10.4 µM (inactive).
Consider `O=c1c2ccccc2nc(N/N=C/c2ccc(Cl)cc2)n1-c1ccccc1`, for which the GI50 in experiment [1] is > 100 µM (inactive); in [2], > 100 µM (inactive); in [4] it was > 100 µM (inactive); in experiment [5], > 100 µM (inactive); in [6], > 100 µM (inactive); in experiment [7], 89.9 µM. The GI50 in experiment [18] was > 100 µM (inactive); in [8] it was > 100 µM (inactive); in [9] it was > 100 µM (inactive); in experiment [19], 50.8 µM (inactive); in [10], > 100 µM (inactive); in experiment [11] it was 67 µM (inactive). For the same compound, the GI50 in experiment [12], in [13], in experiment [14], in experiment [15], in experiment [16] and in [17] was > 100 µM (inactive) in each case.
For the compound `COc1cc(C(C)(C)C)c(OC(=O)/C=C/C(=O)O/C=C/[N+](=O)[O-])c(C(C)(C)C)c1`, the GI50 was 44.4 µM (inactive) in experiment [1]; 30.5 µM (inactive) in [2]; 23.5 µM (inactive) in [4]; 69 µM (inactive) in experiment [5]; > 100 µM (inactive) in [6]; 17.8 µM in [7]. Also, the GI50 is 0.324 µM (active) in experiment [18]; 21.1 µM (inactive) in experiment [8]; > 100 µM (inactive) in experiment [9]; 44.7 µM (inactive) in experiment [19]; 28.1 µM (inactive) in experiment [10]; 29.9 µM (inactive) in experiment [11]. Further, the GI50 was 23.4 µM (inactive) in [12]; > 100 µM (inactive) in [13]; > 100 µM (inactive) in [15]; 28.4 µM (inactive) in experiment [16]; 47.6 µM (inactive) in [17].
For `COc1cc(/C=C/c2ccc(O)c(OC)c2)cc(OC)c1`, the GI50 in experiment [1] was 21.6 µM (inactive); in experiment [2] it was 22.2 µM (inactive); in [4] it was 27.1 µM (inactive); in experiment [5] it was 28.2 µM (inactive); in experiment [6] it was 49.7 µM (inactive); in experiment [7] it was 14.3 µM. The GI50 in [18] was 12.6 µM (inactive); in [8], 30.8 µM (inactive); in experiment [9], 26.4 µM (inactive); in [19], 17.4 µM (inactive); in [12] it was 31 µM (inactive); in [13], 17.7 µM (inactive). Besides, the GI50 in experiment [14] is 33.1 µM (inactive); in experiment [15], 26.9 µM (inactive); in [16] it was 30.1 µM (inactive); in experiment [17], 24.8 µM (inactive).
As to `O=C(O)c1cc2ccccc2c(/N=N\c2cc(C(F)(F)F)ccc2Cl)c1O`, the GI50 in experiment [2] was 46.5 µM (inactive); in experiment [4] it was 94.8 µM (inactive); in experiment [5], 70 µM (inactive); in [6], > 100 µM (inactive); in experiment [7], 83.8 µM; in experiment [18], 21.8 µM (inactive). For the same compound, the GI50 in experiment [8] is 77.6 µM (inactive); in experiment [9], 27 µM (inactive); in experiment [19], > 100 µM (inactive); in experiment [10], > 100 µM (inactive); in [11], > 100 µM (inactive); in experiment [12], 76.2 µM (inactive). Also, the GI50 in experiment [13] is 47.6 µM (inactive); in [14], 83 µM (inactive); in experiment [15], > 100 µM (inactive); in [16] it was > 100 µM (inactive); in experiment [17] it was 67.6 µM (inactive).
On to `Nc1nc(N)nc(-c2cnccn2)n1`, for which the GI50 in experiment [1], in experiment [2], in [3], in experiment [4], in [5] and in [6] was > 100 µM (inactive) throughout. The GI50 is above 100 µM in experiment [7]; > 100 µM (inactive) in experiment [9]; > 100 µM (inactive) in experiment [10]; > 100 µM (inactive) in experiment [11]; > 100 µM (inactive) in experiment [12]; > 100 µM (inactive) in experiment [13]. For the same compound, the GI50 in experiment [14], in [15], in experiment [16] and in [17] was > 100 µM (inactive) throughout.
In the case of `[O-][S+](Nc1ccccc1)c1cccc(Cl)c1` (stereo not given), the GI50 is 25.5 µM (inactive) in experiment [2]; 91 µM (inactive) in [4]; 27 µM (inactive) in experiment [5]; 11.3 µM (inactive) in experiment [6]; 29.6 µM in experiment [7]; 48.6 µM (inactive) in experiment [18]. Besides, the GI50 in experiment [8] is > 100 µM (inactive); in [9] it was 37.3 µM (inactive); in [19], > 100 µM (inactive); in experiment [10] it was > 100 µM (inactive); in [11], 57.3 µM (inactive); in experiment [12] it was 34.6 µM (inactive). For the same compound, the GI50 in experiment [13] was 65.3 µM (inactive); in experiment [14], 68.5 µM (inactive); in experiment [16], > 100 µM (inactive); in experiment [17], > 100 µM (inactive).
Regarding `CCC1(O)CC(OC2CC(N(C)C)C(OC3CC(O)C(OC4CCC(=O)C(C)O4)C(C)O3)C(C)O2)c2c(O)c3c(c(O)c2C1C(=O)OC)C(=O)c1cccc(O)c1C3=O` (stereo not given), the GI50 in [2] was 0.00134 µM (active); in experiment [4], 0.000267 µM (active); in [5] it was 0.012 µM (active); in experiment [6], 0.0172 µM (active); in experiment [7], 0.00719 µM; in experiment [18], 0.00586 µM (active). Besides, the GI50 was 0.00445 µM (active) in experiment [8]; 0.000274 µM (active) in experiment [9]; 0.00482 µM (active) in experiment [19]; 0.0126 µM (active) in experiment [10]; 0.00385 µM (active) in experiment [11]; 0.0109 µM (active) in [12]. For the same compound, the GI50 in experiment [13] is 0.00219 µM (active); in [14], 0.00995 µM (active); in experiment [15] it was 0.00565 µM (active); in [16], 0.00171 µM (active); in experiment [17], 0.0059 µM (active).
In the case of `O=C(CN1CCOCC1)Nc1nc(-c2ccc(Cl)cc2)cs1`, the GI50 is 23.1 µM (inactive) in [1]; 25.1 µM (inactive) in experiment [2]; 34.4 µM (inactive) in [4]; 75.2 µM (inactive) in experiment [5]; 26.8 µM (inactive) in [6]; 29.4 µM in experiment [7]. Moreover, the GI50 in experiment [18] is 17.3 µM (inactive); in experiment [8] it was 36.1 µM (inactive); in experiment [9], 19.4 µM (inactive); in experiment [10], 24 µM (inactive); in [13], 25.8 µM (inactive); in [14], 25.6 µM (inactive). The GI50 was 65.3 µM (inactive) in experiment [15] and 41.8 µM (inactive) in experiment [16].
`c1ccc(NC2(c3nnnn3C3CCCCC3)CCNCC2)cc1`: the GI50 was 18 µM (inactive) in experiment [1]; 20.1 µM (inactive) in experiment [2]; 20.7 µM (inactive) in experiment [5]; 11.7 µM (inactive) in experiment [6]; 21.2 µM in experiment [7]; 14.1 µM (inactive) in experiment [18]. Further, the GI50 was 16.7 µM (inactive) in [8]; 17.9 µM (inactive) in experiment [10]; 66.5 µM (inactive) in [12]; 17.9 µM (inactive) in experiment [13]; 17.9 µM (inactive) in experiment [14]; 26 µM (inactive) in experiment [15]. The GI50 is 22.2 µM (inactive) in [16] and 15.7 µM (inactive) in experiment [17].
